Test results: patent publication US9763444B2, “Compositions and methods for repelling blood-sucking and biting insects, ticks and mites” (The United States of America, as represented by the …, priority 2013, dated 2017)

Key:
female Aedes aegypti = experiment: Knock down (KD) after forced contact with treated muslin cloth (insecticidal properties); assay type: in vivo; conditions: 2 min forced exposure to treated cloth
Experimental: The minimum effective dosage (MED) for repellency of 99% of mosquitoes was determined by wearing treated muslin cloth with varying concentrations of the chemical. At a surface concentration of 0.011 mg/cm^2, nearly all mosquitoes are repelled from the surface. The insecticidal properties required a much higher concentration of 2. All tests were conducted by forcing mosquitoes (5 per replicate×5 replicates) into contact with treated muslin cloth.

Ae. aegypti = experiment: Minimum Effective Dosage (MED) test on treated cloth, mosquito repellency; assay type: in vivo, Aedes aegypti; conditions: for Ae. aegypti Minimum Effective Dosage, M9: human subject M9; for Ae. aegypti Minimum Effective Dosage, M10: human subject M10
Experimental: Bioassay for mosquito repellent activity: Repellency screening test for experimental chemicals were carried out to identify candidates that might be useful repellents. The repellent efficacy was compared to that of the standard repellent, DEET. Experimental compounds were assessed in one of two ways: (1) a range of concentration was evaluated to determine the minimum effective dosage (MED) which was the concentration threshold of where the repellent began to fail and allowed bites, or (2) a predetermined concentration of each repellent was applied to cloth and the activity was evaluated over several days (or in some cases months) (Katritzky, A. R., et al., Proc. Nat. Acad. Sci. (US), 105, 7359-7364 (2008); Katritzky, A. R., et al., Journal of Med. Entomol., 47: 924-938 (2010)). When conducting assays for repellency, a failure point was also predetermined for those measurements. Since experiments described herein used about 500 female mosquitoes per test, the failure point was set at 1% (equal to 5 bites) received during a test interval. From 3 to 5 volunteers participated in the screening of each set of chemicals.
Minimum Effective Dosage (MED) Test: The MED bioassays on treated cloth were a method of screening to determine the minimum amount of a repellent needed to prevent bites. Experimental compounds were prepared in solution by combining 0.15 g of experimental chemical with 2 mL of acetone in a 7.1 mL screwtop glass vial. This solution was then serially diluted to obtain nine concentrations when applied on to the cloth patch: 1.5, 0.75, 0.375, 0.187, 0.094, 0.047, 0.023, 0.011, and 0.006 mg/cm^2. The standard N,N-diethyl-3-methylbenzamide (DEET) was also tested at the same concentration levels to serve as a control and a comparison for relative repellency. A 50 cm^2 (5 cm×10 cm) patch of muslin cloth was rolled lengthwise and placed into each of the glass vials and scaled with a screwtop so it soaked up the solution. Just prior to the experiment, the pieces of treated cloth were removed from the vials, affixed to card stock tabs (5 cm×3 cm) with staples, and hung with masking tape on a rack to dry and allow acetone to evaporate. Volunteers wore a latex glove over their hands, a nylon stocking over their arm, and then wrapped a plastic Velcro-sealed sleeve over their entire forearm with a 32 cm^2 (4 cm×8 cm) window cut-out to allow mosquitoes to bite through. The nylon stocking acted as a barrier between the dried cloth and the skin, an additional precaution with experimental compounds. Dried cloth patches were stretched across the window in the plastic sleeve and held in place with masking tape. Volunteers placed their sleeve-covered arms into a screened cage for a one minute period with approximately 500 female Ae. aegypti mosquitoes that had been preselected for host-seeking behavior using a draw box (Posey, K. H., and C. E. Schreck, Mosquito News, 41: 566-568 (1981)). […] The MED recorded was the lowest passing concentration level tested for the experimental compound. […] All human volunteers in the study provided informed consent to participate of a protocol approved by the University of Florida Human Use Institutional Review Board (IRB #636-2005).

[1] = Table 1 preliminary assay, human subject M4, highest concentration 1.500 mg/cm^2
[2] = Table 1 preliminary assay, human subject M5, highest concentration 1.500 mg/cm^2
[3] = Table 1 preliminary assay, human subject M8, highest concentration 1.500 mg/cm^2
[4] = Table 1 preliminary assay, highest concentration 1.500 mg/cm^2
[5] = Table 1 preliminary assay, mean of 5 volunteers
[6] = Table 5, subject M4, highest dose 0.375 mg/cm2 (0.187 for 7)
[7] = Table 5, subject M5, highest dose 0.375 mg/cm2 (0.187 for 7)
[8] = Table 5, subject M8, highest dose 0.375 mg/cm2 (0.187 for 7)

Structure (SMILES)	KD100 @ 1 h, surface concentration (female Aedes aegypti; knock down counted after 1 h) [mg/cm^2]	KD100 @ 5 h, surface concentration (female Aedes aegypti; knock down counted after 5 h) [mg/cm^2]	KD100 @ 8 h, surface concentration (female Aedes aegypti; knock down counted after 8 h) [mg/cm^2]	mosquito repellent activity against Ae. aegypti (in words) (Ae. aegypti; MED test on treated cloth)	Ae. aegypti Minimum Effective Dosage, M4 (Ae. aegypti; [1]) [mg/cm^2]	Ae. aegypti Minimum Effective Dosage, M5 (Ae. aegypti; [2]) [mg/cm^2]	Ae. aegypti Minimum Effective Dosage, M8 (Ae. aegypti; [3]) [mg/cm^2]	Ae. aegypti Minimum Effective Dosage, M9 (Ae. aegypti; [4]) [mg/cm^2]	Ae. aegypti Minimum Effective Dosage, M10 (Ae. aegypti; [4]) [mg/cm^2]	Ae. aegypti Minimum Effective Dosage, Average (Ae. aegypti; [5]) [mg/cm^2]	Ae. aegypti Minimum Effective Dosage, F1 (Ae. aegypti; Table 2, human subject F1, highest concentration 1.500 mg/cm^2) [mg/cm^2]	Ae. aegypti Minimum Effective Dosage, M1 (Ae. aegypti; Table 2, human subject M1, highest concentration 1.500 mg/cm^2) [mg/cm^2]	Ae. aegypti Minimum Effective Dosage, M2 (Ae. aegypti; Table 2, human subject M2, highest concentration 1.500 mg/cm^2) [mg/cm^2]	Ae. aegypti Minimum Effective Dosage, Average (Ae. aegypti; Table 2, mean of 3 volunteers) [mg/cm^2]	Ae. aegypti Minimum Effective Dosage, Average (Ae. aegypti; Table 5, mean of 3 volunteers) [mg/cm^2]	Ae. aegypti Minimum Effective Dosage, M4 (Ae. aegypti; [6]) [mg/cm^2]	Ae. aegypti Minimum Effective Dosage, M5 (Ae. aegypti; [7]) [mg/cm^2]	Ae. aegypti Minimum Effective Dosage, M8 (Ae. aegypti; [8]) [mg/cm^2]	MED for ~100% Repellency (ED99), surface concentration (Ae. aegypti; Table 7, treated cloth, female Aedes aegypti) [mg/cm^2]
CC1(C)C=Cc2c(CO)cccc2O1 [Compound 2]	15.38	7.69	0.96	act as mosquito repellents	0.011	0.011	0.011	0.094	0.047	0.035	0.023	0.023	0.023	0.023	0.009	0.011	0.011	0.006	0.011
CCN(CC)C(=O)c1cccc(C)c1 [DEET, N,N-diethyl-3-methylbenzamide, reference compound]	–	–	–	–	0.111	0.023	0.023	0.023	0.023	0.021	–	–	–	–	0.015	0.011	0.011	0.023	–
